Measured values as given in patent US20240208961A1, “EIF4E INHIBITORS AND USES THEREOF” (PIC Therapeutics, Inc., priority 2022, published 2024).
Several values for one entry are separate records, joined by “and”; a condition that tells them apart may be missing. Equal entries are not always repeated. Where two headings read alike, the source gives them in different places.

Experiments:
[1] = Pharmacokinetic studies of certain compounds in female Balb/c mice (Example 5); type: in vivo; conditions: for concentration at 0.083 h / concentration at 0.25 h / concentration at 0.5 hr / concentration at 1 hr / concentration at 2 hr / concentration at 4 hr / concentration at 8 hr / concentration at 24 hr / concentration at 0.5 h / concentration at 1 h / concentration at 2 h / concentration at 4 h / concentration at 8 h / concentration at 24 h: female, Balb/c
Summary of the method: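 Female Balb/c mice (N=9) were fasted overnight and given compound PO as a suspension in 1% CMC/0.2% Tween 80 or IV in 5% DMSO/5% Solutol HS15/90% saline. Facial-vein plasma was taken from 0.083 to 24 h and assayed by LC-MS. Parameters are non-compartmental, and F was based on AUCINF or AUClast.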

T47D = assay: Cell viability assay, adherent cell line, 5 day Alamar Blue (Example 8): T47D; type: cell-based; conditions: Homo sapiens, 120 h, Breast Cancer Cell Viability
NCIH510A = assay: Cell viability assay, suspension cell line, 5 day Alamar Blue (Example 8): NCIH510A; type: cell-based; conditions: Homo sapiens, NCI-H510A, 120 h, Small Cell Lung Cancer Cell Line
[2] = mouse, plasma, I-27 PO 30 mg/kg

With `CC(C)Cc1sc(Nc2ncc(-c3cccs3)cc2C(=O)O)nc1C1(C)CCCCC1` [Compound I-27] the “Plasma concentration Individual” value ([1]; I-27 IV 1 mg/kg, 0.083 hr, 1 mg/kg) was 4810 ng/mL and 5030 ng/mL, the “Plasma concentration Individual” value ([1]; I-27 IV 1 mg/kg, 0.25 hr, 1 mg/kg) was 1300 ng/mL and 1270 ng/mL and the “Plasma concentration Individual” value ([1]; I-27 IV 1 mg/kg, 0.5 hr, 1 mg/kg) was 584 ng/mL and 448 ng/mL. For the same molecule, the “Plasma concentration Individual” value ([1]; I-27 IV 1 mg/kg, 1 hr, 1 mg/kg) was 393 ng/mL and 335 ng/mL, the “Plasma concentration Individual” value ([1]; I-27 IV 1 mg/kg, 2 hr, 1 mg/kg) was 213 ng/mL and 163 ng/mL and the “Plasma concentration Individual” value ([1]; I-27 IV 1 mg/kg, 4 hr, 1 mg/kg) was 31.7 ng/mL and 29.9 ng/mL. The “Plasma concentration Individual” value ([1]; I-27 IV 1 mg/kg, 8 hr, 1 mg/kg) was 5.02 ng/mL and 8.89 ng/mL, the “Plasma concentration Individual” value ([1]; I-27 IV 1 mg/kg, 24 hr, BQL = below quantifiable limit of 1.00 ng/mL, 1 mg/kg) was “BQL” and the F ([1]; I-27 PO 30 mg/kg vs IV 1 mg/kg) was 27.4%. The “Plasma concentration Individual” value ([1]; I-27 PO 30 mg/kg, 0.083 hr, 30 mg/kg) was 80.4 ng/mL and 62.5 ng/mL, the “Plasma concentration Individual” value ([1]; I-27 PO 30 mg/kg, 0.25 hr, 30 mg/kg) was 368 ng/mL and 587 ng/mL and the “Plasma concentration Individual” value ([1]; I-27 PO 30 mg/kg, 0.5 hr, 30 mg/kg) was 1590 ng/mL and 1270 ng/mL. For the same molecule, the “Plasma concentration Individual” value ([1]; I-27 PO 30 mg/kg, 1 hr, 30 mg/kg) was 2120 ng/mL and 2090 ng/mL, the “Plasma concentration Individual” value ([1]; I-27 PO 30 mg/kg, 2 hr, 30 mg/kg) was 2860 ng/mL and 1950 ng/mL and the “Plasma concentration Individual” value ([1]; I-27 PO 30 mg/kg, 4 hr, 30 mg/kg) was 2160 ng/mL and 1760 ng/mL. The “Plasma concentration Individual” value ([1]; I-27 PO 30 mg/kg, 8 hr, 30 mg/kg) was 715 ng/mL and 493 ng/mL, the “Plasma concentration Individual” value ([1]; I-27 PO 30 mg/kg, 24 hr, 30 mg/kg) was 11.0 ng/mL and 10.1 ng/mL and the concentration at 0.083 h ([1]; mouse, plasma, iv, 1 mg/kg, I-27 IV 1 mg/kg, 0.083 hr, read-out: Plasma concentration Individual) was 4410 ng/mL. For the same molecule, the concentration at 0.083 h ([1]; mouse, plasma, iv, 1 mg/kg, I-27 IV 1 mg/kg, 0.083 hr, read-out: Plasma concentration Mean) was 4750 ng/mL, the concentration at 0.25 h ([1]; mouse, plasma, iv, 1 mg/kg, I-27 IV 1 mg/kg, 0.25 hr, read-out: Plasma concentration Individual) was 865 ng/mL and the concentration at 0.25 h ([1]; mouse, plasma, iv, 1 mg/kg, I-27 IV 1 mg/kg, 0.25 hr, read-out: Plasma concentration Mean) was 1140 ng/mL. For the same molecule, the concentration at 0.5 hr ([1]; mouse, plasma, iv, 1 mg/kg, I-27 IV 1 mg/kg, 0.5 hr, read-out: Plasma concentration Individual) was 638 ng/mL, the concentration at 0.5 hr ([1]; mouse, plasma, iv, 1 mg/kg, I-27 IV 1 mg/kg, 0.5 hr, read-out: Plasma concentration Mean) was 557 ng/mL and the concentration at 1 hr ([1]; mouse, plasma, iv, 1 mg/kg, I-27 IV 1 mg/kg, 1 hr, read-out: Plasma concentration Individual) was 341 ng/mL. For the same molecule, the concentration at 1 hr ([1]; mouse, plasma, iv, 1 mg/kg, I-27 IV 1 mg/kg, 1 hr, read-out: Plasma concentration Mean) was 356 ng/mL, the concentration at 2 hr ([1]; mouse, plasma, iv, 1 mg/kg, I-27 IV 1 mg/kg, 2 hr, read-out: Plasma concentration Individual) was 142 ng/mL and the concentration at 2 hr ([1]; mouse, plasma, iv, 1 mg/kg, I-27 IV 1 mg/kg, 2 hr, read-out: Plasma concentration Mean) was 173 ng/mL. The concentration at 4 hr ([1]; mouse, plasma, iv, 1 mg/kg, I-27 IV 1 mg/kg, 4 hr, read-out: Plasma concentration Individual) was 55.9 ng/mL, the concentration at 4 hr ([1]; mouse, plasma, iv, 1 mg/kg, I-27 IV 1 mg/kg, 4 hr, read-out: Plasma concentration Mean) was 39.2 ng/mL and the concentration at 8 hr ([1]; mouse, plasma, iv, 1 mg/kg, I-27 IV 1 mg/kg, 8 hr, read-out: Plasma concentration Individual) was 7.46 ng/mL. For the same molecule, the concentration at 8 hr ([1]; mouse, plasma, iv, 1 mg/kg, I-27 IV 1 mg/kg, 8 hr, read-out: Plasma concentration Mean) was 7.12 ng/mL, the concentration at 24 hr ([1]; mouse, plasma, iv, 1 mg/kg, I-27 IV 1 mg/kg, 24 hr, BQL = below quantifiable limit of 1.00 ng/mL, read-out: Plasma concentration Individual) was 1.09 ng/mL and the concentration at 24 hr ([1]; mouse, plasma, iv, 1 mg/kg, I-27 IV 1 mg/kg, 24 hr, BQL = below quantifiable limit of 1.00 ng/mL, read-out: Plasma concentration Mean) was 1.09 ng/mL. It also gave a concentration at 0.083 h ([1]; mouse, plasma, po, 30 mg/kg, I-27 PO 30 mg/kg, 0.083 hr, read-out: Plasma concentration Individual) of 40.5 ng/mL, a concentration at 0.083 h ([1]; mouse, plasma, po, 30 mg/kg, I-27 PO 30 mg/kg, 0.083 hr, read-out: Plasma concentration Mean) of 61.1 ng/mL and a concentration at 0.25 h ([1]; mouse, plasma, po, 30 mg/kg, I-27 PO 30 mg/kg, 0.25 hr, read-out: Plasma concentration Individual) of 448 ng/mL. For the same molecule, the concentration at 0.25 h ([1]; mouse, plasma, po, 30 mg/kg, I-27 PO 30 mg/kg, 0.25 hr, read-out: Plasma concentration Mean) was 468 ng/mL, the concentration at 0.5 h ([1]; mouse, plasma, po, 30 mg/kg, I-27 PO 30 mg/kg, 0.5 hr, read-out: Plasma concentration Individual) was 2080 ng/mL and the concentration at 0.5 h ([1]; mouse, plasma, po, 30 mg/kg, I-27 PO 30 mg/kg, 0.5 hr, read-out: Plasma concentration Mean) was 1650 ng/mL. It also gave a concentration at 1 h ([1]; mouse, plasma, po, 30 mg/kg, I-27 PO 30 mg/kg, 1 hr, read-out: Plasma concentration Individual) of 1930 ng/mL, a concentration at 1 h ([1]; mouse, plasma, po, 30 mg/kg, I-27 PO 30 mg/kg, 1 hr, read-out: Plasma concentration Mean) of 2050 ng/mL and a concentration at 2 h ([1]; mouse, plasma, po, 30 mg/kg, I-27 PO 30 mg/kg, 2 hr, read-out: Plasma concentration Individual) of 2040 ng/mL. For the same molecule, the concentration at 2 h ([1]; mouse, plasma, po, 30 mg/kg, I-27 PO 30 mg/kg, 2 hr, read-out: Plasma concentration Mean) was 2280 ng/mL, the concentration at 4 h ([1]; mouse, plasma, po, 30 mg/kg, I-27 PO 30 mg/kg, 4 hr, read-out: Plasma concentration Individual) was 2050 ng/mL and the concentration at 4 h ([1]; mouse, plasma, po, 30 mg/kg, I-27 PO 30 mg/kg, 4 hr, read-out: Plasma concentration Mean) was 1990 ng/mL. It also gave a concentration at 8 h ([1]; mouse, plasma, po, 30 mg/kg, I-27 PO 30 mg/kg, 8 hr, read-out: Plasma concentration Individual) of 613 ng/mL, a concentration at 8 h ([1]; mouse, plasma, po, 30 mg/kg, I-27 PO 30 mg/kg, 8 hr, read-out: Plasma concentration Mean) of 607 ng/mL and a concentration at 24 h ([1]; mouse, plasma, po, 30 mg/kg, I-27 PO 30 mg/kg, 24 hr, read-out: Plasma concentration Individual) of 14.2 ng/mL. It also gave a concentration at 24 h ([1]; mouse, plasma, po, 30 mg/kg, I-27 PO 30 mg/kg, 24 hr, read-out: Plasma concentration Mean) of 11.8 ng/mL, an AUC(0-inf) ([1]; mouse, plasma, I-27 IV 1 mg/kg) of 2170 ng·h/mL and an AUC(0-t) ([1]; mouse, plasma, I-27 IV 1 mg/kg) of 2160 ng·h/mL. For the same molecule, the C0 ([1]; mouse, plasma, I-27 IV 1 mg/kg) was 9630 ng/mL, the MRT inf ([1]; mouse, plasma, I-27 IV 1 mg/kg) was 1.13 h and the MRT last ([1]; mouse, plasma, I-27 IV 1 mg/kg) was 1.04 h. The clearance ([1]; mouse, plasma, I-27 IV 1 mg/kg) was 7.68 mL/min/kg, the half-life ([1]; mouse, plasma, I-27 IV 1 mg/kg) was 4.29 h and the Vd ([1]; mouse, plasma, I-27 IV 1 mg/kg, read-out: Vss) was 0.52 L/kg. It also gave an AUC(0-inf) [1, 2] of 17900 ng·h/mL, an AUC(0-t) [1, 2] of 17800 ng·h/mL and a Cmax [1, 2] of 2280 ng/mL. It also gave an MRT inf [1, 2] of 4.74 h, an MRT last [1, 2] of 4.68 h and a Tmax [1, 2] of 2 h. It also gave a half-life [1, 2] of 2.73 h, an IC50 (T47D) of no more than 1 µM and an IC50 (NCIH510A) of no more than 1 µM.
